Measurements as given in article PMC7999182, “Interaction of Remdesivir with Clinically Relevant Hepatic Drug Uptake Transporters” (Pharmaceutics, 2021).

Molecular target: T1, OATP2B1 (Homo sapiens, UniProt O94956)
T1 construct: expressed in transfected cells
T1 sequence (O94956 1-709): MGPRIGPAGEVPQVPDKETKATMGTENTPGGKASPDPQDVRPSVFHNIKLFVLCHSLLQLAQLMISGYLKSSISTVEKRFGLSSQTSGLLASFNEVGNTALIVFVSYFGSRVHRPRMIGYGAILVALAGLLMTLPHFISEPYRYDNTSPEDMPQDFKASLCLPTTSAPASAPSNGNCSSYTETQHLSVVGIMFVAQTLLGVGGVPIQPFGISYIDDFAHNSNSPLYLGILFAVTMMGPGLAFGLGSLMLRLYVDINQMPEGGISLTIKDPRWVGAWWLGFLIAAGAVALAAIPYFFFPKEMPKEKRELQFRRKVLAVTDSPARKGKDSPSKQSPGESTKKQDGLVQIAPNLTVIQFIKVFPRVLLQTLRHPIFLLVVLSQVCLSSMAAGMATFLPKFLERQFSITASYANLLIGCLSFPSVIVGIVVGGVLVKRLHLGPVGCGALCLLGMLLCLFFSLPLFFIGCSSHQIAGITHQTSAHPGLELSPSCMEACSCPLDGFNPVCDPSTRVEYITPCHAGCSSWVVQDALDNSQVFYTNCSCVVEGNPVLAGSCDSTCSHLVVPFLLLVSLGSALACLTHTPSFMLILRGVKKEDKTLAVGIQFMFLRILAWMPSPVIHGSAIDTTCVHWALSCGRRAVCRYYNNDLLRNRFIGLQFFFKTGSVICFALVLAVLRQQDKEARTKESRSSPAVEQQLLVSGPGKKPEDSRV
Assay: Remdesivir uptake into HEK cells stably expressing OATP2B1 vs vector control
Format: in vitro ADME
Conditions: 5 µM remdesivir, 10 min, transporter-expressing vs control HEK cells
Source text: Generation, cultivation and characterization of human embryonic kidney (HEK) cells stably expressing OATP1B1 refseq (=OATP1B1*1a), OATP1B1*1b, OATP1B1*5 and OATP1B1*15 [18], OATP1B3 [19], OATP2B1 [13] and OCT1 [20] have been described previously. OATP1B1 cells were cultivated in minimal essential medium (Life Technologies, Paisley, UK) and OATP1B3, OATP2B1 and OCT1 cells were cultivated in Dulbecco’s modified Eagle medium (Sigma, Darmstadt, Germany). Cultivation media were supplemented with 10% fetal calf serum, 100 U/mL penicillin and 100 µg/mL streptomycin. Cells were grown at 37 °C and 5% CO2. Functionality of the cells was confirmed by measuring uptake of prototypic substrates (see Section 2.3 and supplementary material).
Uptake assays were conducted at 37 °C according to previously described methods. For this, cells were seeded in 24-well plates (320,000 cells/well) and cultured for 2 days. Cells were then incubated for a further 24 h in culture medium with 5 mM butyrate (OATP1B3, OATP2B1, OCT1) or 10 mM butyrate (OATP1B1) to increase protein levels of recombinant transporters. […]
Remdesivir was determined by UHPLC-MS-MS analysis on an Agilent 1290 infinity UHPLC system coupled to an Agilent 6495B triple quadrupole mass spectrometer (Agilent, Waldbronn, Germany) similar to a recently published method. […]

## CCC(CC)COC(=O)[C@H](C)N[P@](=O)(OC[C@H]1O[C@@](C#N)(c2ccc3c(N)ncnn23)[C@H](O)[C@@H]1O)Oc1ccccc1 [Remdesivir]
  Remdesivir uptake ratio: 1.4
